{
  "source": "patent US8946217B2",
  "about": "“Pharmaceutical compounds” (F. Hoffman-La Roche AG, priority 2005, dated 2015)",
  "system": "Caco-2 cells",
  "assay": "Caco-2 permeability",
  "assay_type": "in vitro ADME",
  "settings": "bidirectional Caco-2 assay",
  "method": "Caco-2 cells were seeded onto Millipore Multiscreen plates at 1×10^5 cells/cm^2, and were cultured for 20 days. Assessment of compound permeability was subsequently conducted. The compounds were applied to the apical surface (A) of cell monolayers and compound permeation into the basolateral (B) compartment was measured. This was performed in the reverse direction (B-A) to investigate active transport. A permeability coefficient value, Papp, for each compound, a measure of the rate of permeation of the compound across the membrane, was calculated. Compounds were grouped into low (Papp</=[…]) or high (Papp>/=[…]) absorption potential based on comparison with control compounds with established human absorption.\nFor assessment of a compound's ability to undergo active efflux, the ratio of basolateral (B) to apical (A) transport compared with A to B was determined. Values of B-A/A-B>/=1.0 indicated the occurrence of active cellular efflux. All of the compounds tested through the Caco-2 permeability screen had Papp values >/=[…].",
  "data": [
    {"compound": "CN1CCN(Cc2cc3nc(-c4cccc(O)c4)nc(N4CCOCC4)c3s2)CC1", "note": "[PI540]", "values": [
      {"measurement": "B-A/A-B asymmetry index", "result": "less than 1.0"}
    ]}
  ]
}
